US20230257396A1, “MACROCYCLES AND THEIR USE” (BLOSSOMHILL THERAPEUTICS, INC., priority 2020, published 2023)

What was measured:
Experiment in all cases: KINOMEscan kinase binding assay (Eurofins/DiscoveRx), % Ctrl
kinases [1] = biological target: T1, kinases (Homo sapiens, UniProt P10721, D816H); details: 1 μM; target KIT(D816H)
T1 construct: purchased Eurofins/DiscoveRx; host or cells: E. coli BL21-derived host (T7 phage display) for most kinases; HEK-293 for the rest
Summary of the method: (§1)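 Read-out is qPCR of kinase eluted from ligand-coated streptavidin beads after 1 h room-temperature competition with test compound. Values are % Ctrl at the tested concentration, lower meaning tighter binding.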

kinases [2] = biological target: T2, kinases (Homo sapiens, UniProt P10721, L576P); details: 1 μM; target KIT(L576P)
T2 construct: purchased Eurofins/DiscoveRx; host or cells: E. coli BL21-derived host (T7 phage display) for most kinases; HEK-293 for the rest
T2 sequence (P10721 26-976 L576P): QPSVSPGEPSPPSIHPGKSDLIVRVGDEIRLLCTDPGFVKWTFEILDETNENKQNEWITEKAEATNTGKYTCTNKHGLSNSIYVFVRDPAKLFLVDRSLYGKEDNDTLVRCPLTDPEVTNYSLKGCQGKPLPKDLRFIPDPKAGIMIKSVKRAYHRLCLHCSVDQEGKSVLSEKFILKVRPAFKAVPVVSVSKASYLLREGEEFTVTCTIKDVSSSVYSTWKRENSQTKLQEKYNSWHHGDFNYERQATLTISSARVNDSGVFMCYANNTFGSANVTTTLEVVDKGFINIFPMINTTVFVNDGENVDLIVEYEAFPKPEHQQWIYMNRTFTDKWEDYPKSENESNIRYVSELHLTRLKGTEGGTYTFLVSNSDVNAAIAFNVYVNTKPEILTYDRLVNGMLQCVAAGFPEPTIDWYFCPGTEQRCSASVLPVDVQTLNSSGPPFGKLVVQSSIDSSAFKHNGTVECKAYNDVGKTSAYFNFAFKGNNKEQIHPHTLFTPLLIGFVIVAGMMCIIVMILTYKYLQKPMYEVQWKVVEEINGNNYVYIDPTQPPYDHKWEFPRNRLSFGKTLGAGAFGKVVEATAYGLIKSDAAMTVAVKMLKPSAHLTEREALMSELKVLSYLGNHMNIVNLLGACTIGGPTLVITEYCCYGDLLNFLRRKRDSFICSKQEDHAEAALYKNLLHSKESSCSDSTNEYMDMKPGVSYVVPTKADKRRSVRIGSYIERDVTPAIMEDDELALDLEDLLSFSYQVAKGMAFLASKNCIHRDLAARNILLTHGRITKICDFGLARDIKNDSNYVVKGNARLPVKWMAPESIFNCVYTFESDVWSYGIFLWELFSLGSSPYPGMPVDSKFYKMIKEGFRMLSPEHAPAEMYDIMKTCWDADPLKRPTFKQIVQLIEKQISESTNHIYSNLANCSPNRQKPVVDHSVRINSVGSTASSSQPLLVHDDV
Summary of the method: as §1

kinases [3] = biological target: T3, kinases (Homo sapiens, UniProt P00533, DEL752-759); details: 1 μM; target EGFR(S752-I759del)
T3 construct: purchased Eurofins/DiscoveRx; host or cells: E. coli BL21-derived host (T7 phage display) for most kinases; HEK-293 for the rest
Summary of the method: as §1

kinases [4] = biological target: T4, kinases (Homo sapiens, UniProt P00519, T315I); details: 1 μM; for % Ctrl, ABL1(T315I)-nonphosphorylated: target ABL1(T315I)-nonphosphorylated; for % Ctrl, ABL1(T315I)-phosphorylated: target ABL1(T315I)-phosphorylated
T4 construct: purchased Eurofins/DiscoveRx; host or cells: E. coli BL21-derived host (T7 phage display) for most kinases; HEK-293 for the rest
Summary of the method: as §1

kinases [5] = biological target: T5, kinases (Homo sapiens, UniProt P36888, D835Y); details: 1 μM; target FLT3(D835Y)
T5 construct: purchased Eurofins/DiscoveRx; host or cells: E. coli BL21-derived host (T7 phage display) for most kinases; HEK-293 for the rest
T5 sequence (P36888 27-993 D835Y): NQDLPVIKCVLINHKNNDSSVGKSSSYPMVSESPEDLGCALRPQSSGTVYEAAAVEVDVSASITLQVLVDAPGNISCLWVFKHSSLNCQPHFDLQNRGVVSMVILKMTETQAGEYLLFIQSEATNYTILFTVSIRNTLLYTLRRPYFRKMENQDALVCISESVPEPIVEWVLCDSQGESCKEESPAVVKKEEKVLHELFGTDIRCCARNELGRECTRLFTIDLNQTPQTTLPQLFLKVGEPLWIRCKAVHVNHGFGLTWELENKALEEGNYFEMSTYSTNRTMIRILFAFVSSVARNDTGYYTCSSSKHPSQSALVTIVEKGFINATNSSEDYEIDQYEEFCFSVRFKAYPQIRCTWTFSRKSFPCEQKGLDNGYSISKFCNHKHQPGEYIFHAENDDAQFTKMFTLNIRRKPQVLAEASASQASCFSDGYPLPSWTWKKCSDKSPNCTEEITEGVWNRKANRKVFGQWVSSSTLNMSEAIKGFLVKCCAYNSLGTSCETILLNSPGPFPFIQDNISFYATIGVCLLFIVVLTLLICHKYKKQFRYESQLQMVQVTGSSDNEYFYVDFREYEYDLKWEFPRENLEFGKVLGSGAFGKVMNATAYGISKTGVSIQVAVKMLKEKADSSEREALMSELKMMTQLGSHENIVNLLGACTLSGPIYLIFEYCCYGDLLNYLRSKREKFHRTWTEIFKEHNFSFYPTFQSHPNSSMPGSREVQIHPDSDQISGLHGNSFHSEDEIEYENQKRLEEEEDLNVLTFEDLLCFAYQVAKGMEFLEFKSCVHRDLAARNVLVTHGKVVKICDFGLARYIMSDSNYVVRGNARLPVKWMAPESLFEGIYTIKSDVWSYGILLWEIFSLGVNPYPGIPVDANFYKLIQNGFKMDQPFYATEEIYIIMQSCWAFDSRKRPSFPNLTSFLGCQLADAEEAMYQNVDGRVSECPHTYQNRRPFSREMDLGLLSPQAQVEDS
Summary of the method: as §1

kinases [6] = biological target: T6, kinases (Homo sapiens, UniProt P00533, G719S); details: 1 μM; target EGFR(G719S)
T6 construct: purchased Eurofins/DiscoveRx; host or cells: E. coli BL21-derived host (T7 phage display) for most kinases; HEK-293 for the rest
Summary of the method: as §1

kinases [7] = biological target: T7, kinases (Homo sapiens, UniProt P07949, M918T); details: 1 μM; target RET(M918T)
T7 construct: purchased Eurofins/DiscoveRx; host or cells: E. coli BL21-derived host (T7 phage display) for most kinases; HEK-293 for the rest
T7 sequence (P07949 29-1114 M918T): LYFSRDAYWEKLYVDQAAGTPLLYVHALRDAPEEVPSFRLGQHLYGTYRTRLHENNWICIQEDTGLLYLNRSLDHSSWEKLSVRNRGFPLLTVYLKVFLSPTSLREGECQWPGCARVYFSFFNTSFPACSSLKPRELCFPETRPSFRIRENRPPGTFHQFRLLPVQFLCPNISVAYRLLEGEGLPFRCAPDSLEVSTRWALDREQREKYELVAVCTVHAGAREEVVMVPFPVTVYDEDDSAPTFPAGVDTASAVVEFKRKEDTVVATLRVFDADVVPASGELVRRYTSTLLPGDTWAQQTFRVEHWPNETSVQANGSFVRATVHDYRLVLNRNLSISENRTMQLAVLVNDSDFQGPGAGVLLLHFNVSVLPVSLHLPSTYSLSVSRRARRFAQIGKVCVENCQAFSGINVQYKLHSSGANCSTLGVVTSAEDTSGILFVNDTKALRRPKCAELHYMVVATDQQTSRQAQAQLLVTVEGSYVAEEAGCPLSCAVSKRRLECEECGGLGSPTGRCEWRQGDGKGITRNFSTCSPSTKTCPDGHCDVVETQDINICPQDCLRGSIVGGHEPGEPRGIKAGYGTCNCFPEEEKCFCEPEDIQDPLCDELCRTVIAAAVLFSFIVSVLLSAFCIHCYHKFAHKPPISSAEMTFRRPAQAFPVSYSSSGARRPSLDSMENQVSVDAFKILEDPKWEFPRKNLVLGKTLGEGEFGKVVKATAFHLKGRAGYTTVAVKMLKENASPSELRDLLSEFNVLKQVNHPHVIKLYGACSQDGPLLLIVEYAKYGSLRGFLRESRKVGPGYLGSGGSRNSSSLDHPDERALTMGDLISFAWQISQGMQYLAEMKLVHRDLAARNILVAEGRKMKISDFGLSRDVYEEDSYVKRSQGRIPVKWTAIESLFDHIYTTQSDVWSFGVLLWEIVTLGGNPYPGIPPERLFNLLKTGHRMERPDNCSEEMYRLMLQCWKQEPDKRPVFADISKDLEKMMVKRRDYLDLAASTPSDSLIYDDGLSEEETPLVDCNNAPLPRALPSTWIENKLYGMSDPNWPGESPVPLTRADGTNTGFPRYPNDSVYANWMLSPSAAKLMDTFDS
Summary of the method: as §1

kinases [8] = biological target: T8, kinases (Homo sapiens, UniProt P16234); details: 1 μM; target PDGFRA
T8 construct: purchased Eurofins/DiscoveRx; host or cells: E. coli BL21-derived host (T7 phage display) for most kinases; HEK-293 for the rest
T8 sequence (P16234 24-1089): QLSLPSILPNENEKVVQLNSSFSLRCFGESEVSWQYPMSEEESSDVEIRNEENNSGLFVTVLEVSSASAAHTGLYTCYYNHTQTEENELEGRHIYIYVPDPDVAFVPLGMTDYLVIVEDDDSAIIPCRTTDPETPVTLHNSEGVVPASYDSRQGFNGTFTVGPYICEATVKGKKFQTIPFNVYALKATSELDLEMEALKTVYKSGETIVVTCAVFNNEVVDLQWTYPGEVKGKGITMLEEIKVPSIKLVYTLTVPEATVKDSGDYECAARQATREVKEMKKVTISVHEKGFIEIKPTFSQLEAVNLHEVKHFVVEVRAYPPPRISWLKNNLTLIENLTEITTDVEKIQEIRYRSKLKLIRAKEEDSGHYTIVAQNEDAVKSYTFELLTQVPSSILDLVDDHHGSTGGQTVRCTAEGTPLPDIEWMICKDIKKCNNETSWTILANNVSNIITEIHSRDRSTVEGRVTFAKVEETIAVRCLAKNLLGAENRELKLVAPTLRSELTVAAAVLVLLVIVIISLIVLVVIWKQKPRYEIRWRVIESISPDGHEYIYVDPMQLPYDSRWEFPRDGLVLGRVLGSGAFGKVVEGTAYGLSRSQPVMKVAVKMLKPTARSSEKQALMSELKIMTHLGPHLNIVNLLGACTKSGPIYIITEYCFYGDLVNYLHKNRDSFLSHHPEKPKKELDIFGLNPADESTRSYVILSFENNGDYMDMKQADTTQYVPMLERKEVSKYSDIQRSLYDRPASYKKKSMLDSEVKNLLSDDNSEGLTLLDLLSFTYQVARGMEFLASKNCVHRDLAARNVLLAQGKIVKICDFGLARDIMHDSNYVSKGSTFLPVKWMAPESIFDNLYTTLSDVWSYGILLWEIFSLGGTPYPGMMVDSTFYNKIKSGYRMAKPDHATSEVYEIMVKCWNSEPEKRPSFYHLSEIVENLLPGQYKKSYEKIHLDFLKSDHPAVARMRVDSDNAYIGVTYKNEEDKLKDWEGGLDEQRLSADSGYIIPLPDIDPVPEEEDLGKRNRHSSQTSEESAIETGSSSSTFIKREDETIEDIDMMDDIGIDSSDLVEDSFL
Summary of the method: as §1

kinases [9] = biological target: T9, kinases (Homo sapiens, UniProt P00533, L858R); details: 1 μM; target EGFR(L858R)
T9 construct: purchased Eurofins/DiscoveRx; host or cells: E. coli BL21-derived host (T7 phage display) for most kinases; HEK-293 for the rest
Summary of the method: as §1

kinases [10] = biological target: T10, kinases (Homo sapiens, UniProt P00519, H396P); details: 1 μM; for % Ctrl, ABL1(H396P)-nonphosphorylated: target ABL1(H396P)-nonphosphorylated; for % Ctrl, ABL1(H396P)-phosphorylated: target ABL1(H396P)-phosphorylated
T10 construct: purchased Eurofins/DiscoveRx; host or cells: E. coli BL21-derived host (T7 phage display) for most kinases; HEK-293 for the rest
Summary of the method: as §1

kinases [11] = biological target: T11, kinases (Homo sapiens, UniProt P00519, F317I); details: 1 μM; for % Ctrl, ABL1(F317I)-nonphosphorylated: target ABL1(F317I)-nonphosphorylated; for % Ctrl, ABL1(F317I)-phosphorylated: target ABL1(F317I)-phosphorylated
T11 construct: purchased Eurofins/DiscoveRx; host or cells: E. coli BL21-derived host (T7 phage display) for most kinases; HEK-293 for the rest
Summary of the method: as §1

kinases [12] = biological target: T12, kinases (Homo sapiens, UniProt P09619); details: 1 μM; target PDGFRB
T12 construct: purchased Eurofins/DiscoveRx; host or cells: E. coli BL21-derived host (T7 phage display) for most kinases; HEK-293 for the rest
T12 sequence (P09619 33-1106): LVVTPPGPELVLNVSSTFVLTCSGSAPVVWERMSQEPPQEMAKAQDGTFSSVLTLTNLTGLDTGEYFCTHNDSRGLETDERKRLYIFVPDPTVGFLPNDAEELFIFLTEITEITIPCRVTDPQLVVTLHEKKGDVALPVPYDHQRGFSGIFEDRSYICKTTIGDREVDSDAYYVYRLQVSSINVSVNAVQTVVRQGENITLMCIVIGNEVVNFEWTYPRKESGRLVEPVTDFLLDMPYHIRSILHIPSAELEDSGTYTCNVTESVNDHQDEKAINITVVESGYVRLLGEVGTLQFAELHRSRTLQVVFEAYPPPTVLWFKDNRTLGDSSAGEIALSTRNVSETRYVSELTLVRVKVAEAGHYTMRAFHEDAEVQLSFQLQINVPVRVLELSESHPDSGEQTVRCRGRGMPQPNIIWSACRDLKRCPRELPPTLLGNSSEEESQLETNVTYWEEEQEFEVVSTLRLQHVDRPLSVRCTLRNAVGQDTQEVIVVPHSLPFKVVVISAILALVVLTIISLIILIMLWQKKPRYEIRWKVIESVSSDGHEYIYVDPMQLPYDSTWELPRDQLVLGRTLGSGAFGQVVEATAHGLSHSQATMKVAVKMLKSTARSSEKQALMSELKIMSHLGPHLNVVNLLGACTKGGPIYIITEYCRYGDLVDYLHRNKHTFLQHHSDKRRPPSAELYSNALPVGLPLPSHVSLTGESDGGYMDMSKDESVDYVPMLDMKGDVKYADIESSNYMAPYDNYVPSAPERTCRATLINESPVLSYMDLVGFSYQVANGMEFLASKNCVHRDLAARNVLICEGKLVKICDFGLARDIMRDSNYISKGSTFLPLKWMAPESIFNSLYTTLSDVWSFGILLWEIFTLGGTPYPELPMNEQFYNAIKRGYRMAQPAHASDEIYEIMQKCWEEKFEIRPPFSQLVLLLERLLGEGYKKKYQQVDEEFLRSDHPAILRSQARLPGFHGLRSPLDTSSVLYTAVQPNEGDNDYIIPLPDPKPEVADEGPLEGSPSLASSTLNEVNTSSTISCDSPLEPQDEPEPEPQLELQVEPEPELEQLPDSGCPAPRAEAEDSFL
Summary of the method: as §1

kinases [13] = biological target: T13, kinases (Homo sapiens, UniProt P10721, V559D); details: 1 μM; target KIT(V559D)
T13 construct: purchased Eurofins/DiscoveRx; host or cells: E. coli BL21-derived host (T7 phage display) for most kinases; HEK-293 for the rest
T13 sequence (P10721 26-976 V559D): as the sequence (P10721 26-976 L576P) above, with V534D, P551L counted along it
Summary of the method: as §1

kinases [14] = biological target: T14, kinases (Homo sapiens, UniProt P00519, E255K); details: 1 μM; target ABL1(E255K)-phosphorylated
T14 construct: purchased Eurofins/DiscoveRx; host or cells: E. coli BL21-derived host (T7 phage display) for most kinases; HEK-293 for the rest
Summary of the method: as §1

kinases [15] = biological target: T15, kinases (Homo sapiens, UniProt P07949); details: 1 μM; target RET
T15 construct: purchased Eurofins/DiscoveRx; host or cells: E. coli BL21-derived host (T7 phage display) for most kinases; HEK-293 for the rest
T15 sequence (P07949 29-1114): as the sequence (P07949 29-1114 M918T) above, with T890M counted along it
Summary of the method: as §1

T1 sequence (P10721 26-976 D816H): as the sequence (P10721 26-976 L576P) above, with P551L, D791H counted along it

| SMILES | % Ctrl, KIT(D816H) (kinases [1]) [% Ctrl] | % Ctrl, KIT(L576P) (kinases [2]) [% Ctrl] | % Ctrl, EGFR(S752-I759del) (kinases [3]) [% Ctrl] | % Ctrl, ABL1(T315I)-nonphosphorylated (kinases [4]) [% Ctrl] | % Ctrl, ABL1(T315I)-phosphorylated (kinases [4]) [% Ctrl] | % Ctrl, FLT3(D835Y) (kinases [5]) [% Ctrl] | % Ctrl, EGFR(G719S) (kinases [6]) [% Ctrl] | % Ctrl, RET(M918T) (kinases [7]) [% Ctrl] | % Ctrl, PDGFRA (kinases [8]) [% Ctrl] | % Ctrl, EGFR(L858R) (kinases [9]) [% Ctrl] | % Ctrl, ABL1(H396P)-nonphosphorylated (kinases [10]) [% Ctrl] | % Ctrl, ABL1(H396P)-phosphorylated (kinases [10]) [% Ctrl] | % Ctrl, ABL1(F317I)-nonphosphorylated (kinases [11]) [% Ctrl] | % Ctrl, ABL1(F317I)-phosphorylated (kinases [11]) [% Ctrl] | % Ctrl, PDGFRB (kinases [12]) [% Ctrl] | % Ctrl, KIT(V559D) (kinases [13]) [% Ctrl] | % Ctrl, ABL1(E255K)-phosphorylated (kinases [14]) [% Ctrl] | % Ctrl, RET (kinases [15]) [% Ctrl] |
| --- | --- | --- | --- | --- | --- | --- | --- | --- | --- | --- | --- | --- | --- | --- | --- | --- | --- | --- |
| CN1CCOc2cc3c(cc2Cl)NC(=O)/C3=C\c2[nH]ccc2C(=O)N(C)CC1 [Ex. 164, [16a(17)Z]-19-chloro-2,5,8-trimethyl-5,6,7,8,9,10-hexahydro-12,14-(ethanediylidene)dipyrrolo[3,2-i:3′,4′-l][1,4,7]oxadiazacyclopentadecine-4,16(1H,15H)-dione] | 22 | 0.9 | 55 | 0.6 | 1.4 | 0.5 | 74 | 0 | 30 | 45 | 0 | 0 | 5.7 | 6.7 | 0.9 | 6.9 | 0.1 | 0 |
| Cc1cc2c([nH]1)/C=C1\C(=O)Nc3cc(Cl)c(cc31)SCCOCCN(C)C2=O [Ex. 169, [16a(17)Z]-19-chloro-5-methyl-6,7,9,10-tetrahydro-1H-12,14-(ethanediylidene)dipyrrolo[3,4-g:2′,3′-j][1,4,13]oxathiazacyclopentadecine-4,16(5H,15H)-dione] | 8.3 | 0 | 61 | 0.3 | 0.1 | 1.6 | 88 | 0 | 16 | 52 | 0 | 0 | 0.6 | 5 | 0.9 | 1.2 | 0.3 | 0 |
